Key:
[1] = biological target: T1, Aldose reductase (Oryctolagus cuniculus, UniProt P15122); experiment: Aldose reductase inhibition, in vitro (loss of absorbance at 340 millimicrons, glyceraldehyde substrate, NADPH); type: biochemical, New Zealand rabbits (lens); details: pH 6.0, 37° C; for inhibition at 100 µM: 1 × 10^-4 molar concentration of xanthone compound; for inhibition at 10 µM: 1 × 10^-5 molar concentration of xanthone compound; for inhibition at 1 µM: 1 × 10^-6 molar concentration of xanthone compound
T1 construct: Aldose reductase is isolated by homogenizing the lens in 3 volumes of water; from tissue; host or cells: lens of mature New Zealand rabbits
Method: In brief, a solution of the enzyme is added to an appropriately buffered solution containing glyceraldehyde. The loss of ultra violet absorbance at 340 millimicrons is indicative of the rate of reaction of the aldehyde with the enzyme as previously reported by Hayman and Kinoshita, (J. Biol. Chem: 240, 877, (1965)).
Fifty lenses are obtained from mature, New Zealand, rabbits and are immediately frozen on dry ice. Aldose reductase is isolated by homogenizing the lens in 3 volumes of water for 30 seconds in a Waring blender followed by centrifugation at 10,000 xg for 15 minutes to remove insoluble material. Saturated ammonium sulfate is added to the supernatant fluid to 40% saturation. The suspension is centrifuged after 15 minutes, and the supernatant liquid recovered. Additional protein is removed by increasing the ammonium sulfate concentration to 50%, and centrifuging the mixture. Aldose reductase is precipitated from the 50% saturated solution by the addition of powdered ammonium sulfate to 75% saturation and is recovered by centrifugation. The precipitated enzyme is assayed by following the ultraviolet absorbance at 340 millimicrons after dissolving the enzyme in 0.05 M sodium chloride. The enzyme (0.50 ml) is added to a quartz cuvette containing phosphate buffer (0.067 M, pH 6.0), NADPH (2×10^-5 M), and water to a final volume of 3 ml and the cuvette inserted in a conventional ultra-violet spectrometer. The reaction is started by the addition of substrate (glyceraldehyde) to the contents of the cuvette and is followed by the determination of loss of absorbance at 340 millimicrons for 2 minutes at 37° C. The reaction rate observed is usually linear for at least 5 minutes.
All results are shown in Tables I, II, and III as % inhibition, i.e. based on a non-inhibited control sample, no inhibition, 0%.

[2] = tested on: lens aldose reductase; details: in vitro; cited from earlier work

| SMILES | inhibition at 100 µM [1] [%] | inhibition at 10 µM [1] [%] | inhibition at 1 µM [1] [%] | % Inhibition ([1]; molar concentration printed (Table II)) [%] | inhibition of lens aldose reductase (potency in words) [2] |
| --- | --- | --- | --- | --- | --- |
| CC(C)N(C)S(=O)(=O)c1ccc2oc3ccc(C(=O)O)cc3c(=O)c2c1 | 89 | 69 | 17 | – | – |
| CC(C)CCOc1cc([S+](C)[O-])cc2c(=O)c3cc(C(=O)O)ccc3oc12 (stereo not drawn) | 90 | 65 | 25 | – | – |
| CCCCN(C)S(=O)(=O)c1ccc2oc3ccc(C(=O)O)cc3c(=O)c2c1 | 95 | 75 | 25 | – | – |
| CSc1cc(C(C)C)c2oc3ccc(C(=O)O)cc3c(=O)c2c1 | 97 | 67 | 17 | – | – |
| CSc1cc(OC(C)C)c2oc3ccc(C(=O)O)cc3c(=O)c2c1 | 85 | 67 | 17 | – | – |
| CSc1cc(OC(C)C)cc2c(=O)c3cc(C(=O)O)ccc3oc12 | 85 | 60 | 30 | – | – |
| CC(C)Oc1ccc2oc3ccc(C(=O)O)cc3c(=O)c2c1 | 89 | 73 | 3 | – | – |
| O=C(O)c1ccc2oc3ccc(OCC(O)CO)cc3c(=O)c2c1 (stereo not drawn) | – | 81 | 54 | – | – |
| O=C(O)c1ccc2oc3ccc(S(=O)(=O)N(CCO)CCO)cc3c(=O)c2c1 [(HOCH2 CH2)2 N 2 H] | – | 67 | – | – | – |
| CCCCCOc1cc([S+](C)[O-])cc2c(=O)c3cc(C(=O)O)ccc3oc12 (stereo not drawn) [CH3 1 n-C5 H11 O] | 95 | 70 | 35 | – | – |
| CCCCCCCCOc1cc([S+](C)[O-])cc2c(=O)c3cc(C(=O)O)ccc3oc12 (stereo not drawn) [CH3 1 n-C8 H11 O] | 96 | 83 | 42 | – | – |
| C[S+]([O-])c1cc(S(C)(=O)=O)cc2c(=O)c3cc(C(=O)O)ccc3oc12 (stereo not drawn) [CH3 2 CH3 SO] | – | 50 | – | – | – |
| CCC(=O)c1ccc2oc3ccc(C(=O)O)cc3c(=O)c2c1 [CH3 CH2 H] | – | 54 | 50 | 63 | – |
| COc1cc(OC)c2oc3ccc(C(=O)O)cc3c(=O)c2c1 [CH3 O CH3 O] | – | 39 | 25 | – | – |
| COc1ccc2oc3ccc(C(=O)O)cc3c(=O)c2c1 [CH3 O H] | 81 | 39 | 17 | – | – |
| O=C(O)c1ccc2oc3ccc(S(=O)(=O)O)cc3c(=O)c2c1 [H 3 H] | 70 | 43 | – | – | – |
| COc1cccc2c(=O)c3cc(C(=O)O)ccc3oc12 [H CH3 O] | 78 | 50 | 28 | – | – |
| O=C(O)c1ccc2oc3ccc(S(=O)(=O)CCO)cc3c(=O)c2c1 [HO(CH2)2 2 H, 7-(2-hydroxyethylsulfonyl)xanthone-2-carboxylic acid] | – | 83 | – | – | – |
| CC1OC(Oc2c(-c3cc(O)c(O)c(O)c3)oc3cc(O)cc(O)c3c2=O)C(O)C(O)C1O (stereo not drawn) [myrecetrin] | – | – | – | – | among the most potent |
| O=c1c(O)c(-c2ccc(O)c(O)c2)oc2cc(O)cc(O)c12 [quercetin] | – | – | – | – | among the most potent |
| CC1OC(Oc2c(-c3ccc(O)c(O)c3)oc3cc(O)cc(O)c3c2=O)C(O)C(O)C1O (stereo not drawn) [quercetrin] | – | – | – | – | among the most potent |
